Measurements published in patent publication US12098145B2 (Libra Therapeutics, Inc., priority 2022, dated 2024).
pEC50: −log10 of the molar value. Where two headings read alike, the source gives them in different places.

Target: T1, TRPML1 (Homo sapiens, UniProt Q9GZU1)
T1 construct: expressed in transfected cells; host or cells: HEK T-REx cells stably expressing GCaMP6f and TRPML1
Experiment: Cellular TRPML1 assay (FLIPR, GCaMP6f calcium read-out)
Format: cell-based
Conditions: for EC50: HEKT-REx/GCaMP6f/TRPML1 cells, FLIPR TETRA, kinetic response over 300 seconds, read-out: TRPML1 FLIPR pEC50 (converted)
In short: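 HEK T-REx cells stably expressing TRPML1 and GCaMP6f, seeded 24 h before in Optimem + 0.5% FBS. After ~10 min pre-incubation at room temperature, compounds in Ca2+-free Tyrode's buffer were injected on FLIPR Tetra (final DMSO 0.5%). Calcium fluorescence kinetics followed for 300 s.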

T1 sequence (Q9GZU1 whole entry): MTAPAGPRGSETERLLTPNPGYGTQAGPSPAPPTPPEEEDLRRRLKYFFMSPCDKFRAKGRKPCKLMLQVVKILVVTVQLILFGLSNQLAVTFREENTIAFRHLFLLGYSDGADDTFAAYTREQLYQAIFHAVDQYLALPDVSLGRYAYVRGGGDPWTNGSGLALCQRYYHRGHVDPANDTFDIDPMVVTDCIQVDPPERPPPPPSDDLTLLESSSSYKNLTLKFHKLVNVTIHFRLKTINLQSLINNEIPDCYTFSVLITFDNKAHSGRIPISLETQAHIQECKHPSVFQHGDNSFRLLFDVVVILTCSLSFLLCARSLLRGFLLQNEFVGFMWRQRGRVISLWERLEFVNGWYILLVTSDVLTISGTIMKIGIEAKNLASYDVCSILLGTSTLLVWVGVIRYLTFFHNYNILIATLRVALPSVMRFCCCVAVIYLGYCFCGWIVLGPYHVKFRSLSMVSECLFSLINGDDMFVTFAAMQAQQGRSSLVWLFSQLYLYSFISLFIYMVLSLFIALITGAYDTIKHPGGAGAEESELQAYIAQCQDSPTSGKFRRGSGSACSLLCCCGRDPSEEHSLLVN

SMILES: CC(C)OC1CN(c2nc(C(=O)Nc3ccc(OC4CCCC4(F)F)c(F)c3)c(CC(F)(F)F)o2)C1 (stereo not drawn) [Example 24, N-{4-[(2,2-difluorocyclopentyl)oxy]-3-fluorophenyl}-2-[3-(propan-2-yloxy)azetidin-1-yl]-5-(2,2,2-trifluoroethyl)oxazole-4-carboxamide]
- EC50: 1 to 10 µM

SMILES: COCc1oc(N2CCCC2)nc1C(=O)Nc1cc(F)c(N2CCCCC2)c(F)c1 [Example 102, N-[3,5-difluoro-4-(piperidin-1-yl)phenyl]-5-(methoxymethyl)-2-(pyrrolidin-1-yl) oxazole-4-carboxamide]
- EC50: 1 to 10 µM

SMILES: CCc1oc(N2CC3COCC3C2)nc1C(=O)Nc1cc(F)c(OC2CC3C[C@H]3C2)c(F)c1 (stereo partly drawn) [Example 237, N-(4-(cis-bicyclo[3.1.0]hexan-3-yloxy)-3,5-difluorophenyl)-5-ethyl-2-(tetrahydro-1H-furo[3,4-c]pyrrol-5(3H)-yl)oxazole-4-carboxamide]
- EC50: 0.01 to 1 µM

SMILES: CCCc1oc(N2CCCC2)nc1C(=O)Nc1ccc(OC2CCCC2(F)F)c(F)c1 (stereo not drawn) [Example 110, N-(4-((2,2-difluorocyclopentyl)oxy)-3-fluorophenyl)-5-propyl-2-(pyrrolidin-1-yl)oxazole-4-carboxamide]
- EC50: 1 to 10 µM

SMILES: CCc1oc(N2CC(C)(OC)C2)nc1C(=O)Nc1cc(C)c(O[C@@H]2C[C@@H]3C[C@@H]3C2)c(F)c1 [Example 226, N-(4-(cis-bicyclo[3.1.0]hexan-3-yloxy)-3-fluoro-5-methylphenyl)-5-ethyl-2-(3-methoxy-3-methylazetidin-1-yl)oxazole-4-carboxamide]
- EC50: 0.01 to 1 µM

SMILES: O=C(Nc1cc(F)c(O[C@@H]2C[C@@H]3C[C@@H]3C2)c(F)c1)c1nc(N2CCOCC2)oc1CC(F)(F)F [Example 181, N-(4-(cis-bicyclo[3.1.0]hexan-3-yloxy)-3,5-difluorophenyl)-2-morpholino-5-(2,2,2-trifluoroethyl)oxazole-4-carboxamide]
- EC50: 1 to 10 µM

SMILES: CCC1(CC)CN(c2nc(C(=O)Nc3cc(C)c(NC4CC5CC(C5)C4)c(F)c3)c(CC(F)(F)F)o2)C1 (stereo not drawn) [Example 192, N-(4-(bicyclo[3.1.1]heptan-3-ylamino)-3-fluoro-5-methylphenyl)-2-(3,3-diethylazetidin-1-yl)-5-(2,2,2-trifluoroethyl)oxazole-4-carboxamide]
- EC50: 1 to 10 µM

SMILES: O=C(Nc1ccc(OCC2CC3CC3C2)c(F)c1)c1nc(N2CCCC2)oc1CC(F)(F)F (stereo not drawn) [Example 190, N-(4-(bicyclo[3.1.0]hexan-3-ylmethoxy)-3-fluorophenyl)-2-(pyrrolidin-1-yl)-5-(2,2,2-trifluoroethyl)oxazole-4-carboxamide]
- EC50: 1 to 10 µM

SMILES: CCc1oc(N2CCCOCC2)nc1C(=O)Nc1cc(F)c(O[C@@H]2C[C@@H]3C[C@@H]3C2)c(F)c1 [Example 231, N-(4-(cis-bicyclo[3.1.0]hexan-3-yloxy)-3,5-difluorophenyl)-5-ethyl-2-(1,4-oxazepan-4-yl)oxazole-4-carboxamide]
- EC50: 1 to 10 µM

SMILES: CCC1(OC)CN(c2nc(C(=O)Nc3cc(O)c(O[C@@H]4C[C@@H]5C[C@@H]5C4)c(F)c3)c(CC(F)(F)F)o2)C1 [Example 268, N-(4-(cis-bicyclo[3.1.0]hexan-3-yloxy)-3-fluoro-5-hydroxyphenyl)-2-(3-ethyl-3-methoxyazetidin-1-yl)-5-(2,2,2-trifluoroethyl)oxazole-4-carboxamide]
- EC50: 1 to 10 µM

SMILES: O=C(Nc1ccc(OC2CCCC2(F)F)c(F)c1)c1nc(N2CC3C(C2)C3(F)F)oc1CC(F)(F)F (stereo not drawn) [Example 10, 2-{6,6-difluoro-3-azabicyclo[3.1.0]hexan-3-yl}-N-{4-[(2,2-difluorocyclopentyl)oxy]-3-fluorophenyl}-5-(2,2,2-trifluoroethyl)oxazole-4-carboxamide]
- EC50: 1 to 10 µM

SMILES: O=C(Nc1cc(F)c(OC2CC3C[C@H]3C2)c(F)c1)c1nc(N2CCC3(COC3)C2)oc1CC(F)(F)F (stereo partly drawn) [Example 35, N-(4-{cis-bicyclo[3.1.0]hexan-3-yloxy}-3,5-difluorophenyl)-2-{2-oxa-6-azaspiro[3.4]octan-6-yl}-5-(2,2,2-trifluoroethyl)oxazole-4-carboxamide]
- EC50: 0.01 to 1 µM

SMILES: O=C(Nc1cc(F)c(OCC23CC(C2)C3)c(F)c1)c1nc(N2CCCC2)oc1CC(F)(F)F [Example 136, N-(4-(bicyclo[1.1.1]pentan-1-ylmethoxy)-3,5-difluorophenyl)-2-(pyrrolidin-1-yl)-5-(2,2,2-trifluoroethyl)oxazole-4-carboxamide]
- EC50: 0.01 to 1 µM

SMILES: O=C(Nc1cc(F)c(N2C3CCCC2CC3)c(F)c1)c1nc(N2CCCOCC2)oc1CC(F)(F)F [Example 199, N-(4-(8-azabicyclo[3.2.1]octan-8-yl)-3,5-difluorophenyl)-2-(1,4-oxazepan-4-yl)-5-(2,2,2-trifluoroethyl)oxazole-4-carboxamide]
- EC50: 1 to 10 µM

SMILES: CCc1oc(N2CC(CC)(OC)C2)nc1C(=O)Nc1ccc(O[C@@H]2C[C@@H]3C[C@@H]3C2)c(F)c1F [Example 250]
- EC50: 10 to 100 µM

SMILES: CCc1oc(N2CCCCCC2)nc1C(=O)Nc1cc(F)c(O[C@@H]2C[C@@H]3C[C@@H]3C2)c(F)c1 [Example 242, 2-(azepan-1-yl)-N-(4-(cis-bicyclo[3.1.0]hexan-3-yloxy)-3,5-difluorophenyl)-5-ethyloxazole-4-carboxamide]
- EC50: 0.01 to 1 µM

SMILES: O=C(Nc1cc(F)c(OC2CC3C[C@@H]3C2)c(F)c1)c1nc(N2CC3CC2CO3)oc1CC(F)(F)F (stereo partly drawn) [Example 182, 2-(2-oxa-5-azabicyclo[2.2.1]heptan-5-yl)-N-(4-(cis-bicyclo[3.1.0]hexan-3-yloxy)-3,5-difluorophenyl)-5-(2,2,2-trifluoroethyl)oxazole-4-carboxamide]
- EC50: 1 to 10 µM

SMILES: CCc1oc(N2CCCC2)nc1C(=O)Nc1cc(C)c(NC2CC3CC(C3)C2)c(F)c1 (stereo not drawn) [Example 252, N-(4-(bicyclo[3.1.1]heptan-3-ylamino)-3-fluoro-5-methylphenyl)-5-ethyl-2-(pyrrolidin-1-yl)oxazole-4-carboxamide]
- EC50: 1 to 10 µM

SMILES: CCC1(OC)CN(c2nc(C(=O)Nc3cc(O)c(OC4CC5CC(C5)C4)c(F)c3)c(CC(F)(F)F)o2)C1 (stereo not drawn) [Example 266, N-(4-(bicyclo[3.1.1]heptan-3-yloxy)-3-fluoro-5-hydroxyphenyl)-2-(3-ethyl-3-methoxyazetidin-1-yl)-5-(2,2,2-trifluoroethyl)oxazole-4-carboxamide]
- EC50: 1 to 10 µM

SMILES: O=C(Nc1cc(F)c(O[C@@H]2C[C@@H]3C[C@@H]3C2)c(F)c1)c1nc(N2Cc3conc3C2)oc1CC(F)(F)F [Example 166, N-(4-(cis-bicyclo[3.1.0]hexan-3-yloxy)-3,5-difluorophenyl)-2-(4H-pyrrolo[3,4-c]isoxazol-5(6H)-yl)-5-(2,2,2-trifluoroethyl)oxazole-4-carboxamide]
- EC50: 0.01 to 1 µM

SMILES: CN(c1ccc(NC(=O)c2nc(N3CCCC3)oc2CC(F)(F)F)cc1F)C1CC2CC2C1 (stereo not drawn) [Example 80, N-(4-{bicyclo[3.1.0]hexan-3-yl(methyl)amino}-3-fluorophenyl)-2-(pyrrolidin-1-yl)-5-(2,2,2-trifluoroethyl)oxazole-4-carboxamide]
- EC50: 1 to 10 µM

SMILES: O=C(Nc1ccc(OC2CCCC2(F)F)c(F)c1)c1nc(N2CC3CCOC3C2)oc1CC(F)(F)F (stereo not drawn) [Example 12, N-(4-((2,2-difluorocyclopentyl)oxy)-3-fluorophenyl)-2-(hexahydro-5H-furo[2,3-c]pyrrol-5-yl)-5-(2,2,2-trifluoroethyl)oxazole-4-carboxamide]
- EC50: 1 to 10 µM

SMILES: O=C(Nc1cc(F)c(N2CC3CC(C3)C2)c(F)c1)c1nc(N2CCC3(COC3)C2)oc1CC(F)(F)F [Example 208, N-(4-(3-azabicyclo[3.1.1]heptan-3-yl)-3,5-difluorophenyl)-2-(2-oxa-6-azaspiro[3.4]octan-6-yl)-5-(2,2,2-trifluoroethyl)oxazole-4-carboxamide]
- pEC50: 6.00 to 8.00

SMILES: Cc1cc(NC(=O)c2nc(N3CCCC3)oc2CN2CCC2)cc(F)c1O[C@@H]1C[C@@H]2C[C@@H]2C1 [Example 305, 5-(azetidin-1-ylmethyl)-N-(4-(cis-bicyclo[3.1.0]hexan-3-yloxy)-3-fluoro-5-methylphenyl)-2-(pyrrolidin-1-yl)oxazole-4-carboxamide]
- EC50: 1 to 10 µM

SMILES: CCC1(CC)CN(c2nc(C(=O)Nc3ccc(N4CCCCC4)c(F)c3)c(CC(F)(F)F)o2)C1 [Example 216, 2-(3,3-diethylazetidin-1-yl)-N-(3-fluoro-4-(piperidin-1-yl)phenyl)-5-(2,2,2-trifluoroethyl)oxazole-4-carboxamide]
- EC50: 0.01 to 1 µM

SMILES: CCC1(CC)CN(c2nc(C(=O)Nc3cc(F)c(N4CCC5CC5C4)c(F)c3)c(CC(F)(F)F)o2)C1 (stereo not drawn) [Example 211, N-(4-(3-azabicyclo[4.1.0]heptan-3-yl)-3,5-difluorophenyl)-2-(3,3-diethylazetidin-1-yl)-5-(2,2,2-trifluoroethyl)oxazole-4-carboxamide]
- EC50: 0.01 to 1 µM

SMILES: CCC1(CC)CN(c2nc(C(=O)Nc3cc(C)c(O[C@@H]4C[C@@H]5C[C@@H]5C4)c(F)c3)c(CN3CCC3)o2)C1 [Example 297, 5-(azetidin-1-ylmethyl)-N-(4-(cis-bicyclo[3.1.0]hexan-3-yloxy)-3-fluoro-5-methylphenyl)-2-(3,3-diethylazetidin-1-yl)oxazole-4-carboxamide]
- EC50: 1 to 10 µM

SMILES: CCC1(CC)CN(c2nc(C(=O)Nc3ccc(OC4CCCOC4)c(F)c3)c(CC(F)(F)F)o2)C1 (stereo not drawn) [Example 158, 2-(3,3-diethylazetidin-1-yl)-N-(3-fluoro-4-((tetrahydro-2H-pyran-3-yl)oxy)phenyl)-5-(2,2,2-trifluoroethyl)oxazole-4-carboxamide]
- EC50: 0.01 to 1 µM

SMILES: CC1(C)CCCN(c2c(F)cc(NC(=O)c3nc(N4CCCC4)oc3CC(F)(F)F)cc2F)C1 [Example 213, N-(4-(3,3-dimethylpiperidin-1-yl)-3,5-difluorophenyl)-2-(pyrrolidin-1-yl)-5-(2,2,2-trifluoroethyl)oxazole-4-carboxamide]
- EC50: 0.01 to 1 µM

SMILES: O=C(Nc1ccc(OC2CCCC23CC3)c(F)c1)c1nc(N2CCCC2)oc1CC(F)(F)F (stereo not drawn) [Example 52, N-(3-fluoro-4-(spiro[2.4]heptan-4-yloxy)phenyl)-2-(pyrrolidin-1-yl)-5-(2,2,2-trifluoroethyl)oxazole-4-carboxamide]
- EC50: 1 to 10 µM
